Reference: ChEMBL document CHEMBL1130226, “2,4-Diaminothieno[2,3-d]pyrimidine lipophilic antifolates as inhibitors of Pneumocystis carinii and Toxoplasma gondii dihydrofolate reductase” (J Med Chem, 1997)

Columns and labels:
[1] = Selectivity ratio of IC50 (rat liver)/IC50 (Toxoplasma gondii
[2] = Selectivity ratio of IC50 (rat liver)/IC50 (Pneumocystis carinii)
[3] = molecular target: T1, Dihydrofolate reductase (Rattus norvegicus, UniProt Q920D2)
T1 sequence (Q920D2 whole entry): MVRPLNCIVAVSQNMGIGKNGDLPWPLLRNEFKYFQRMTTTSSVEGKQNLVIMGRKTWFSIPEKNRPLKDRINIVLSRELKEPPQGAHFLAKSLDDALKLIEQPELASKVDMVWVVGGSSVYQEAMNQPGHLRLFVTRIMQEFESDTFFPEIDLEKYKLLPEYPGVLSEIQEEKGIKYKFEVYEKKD
Description: Inhibition of rat liver Dihydrofolate Reductase

[4] = molecular target: T2, Bifunctional dihydrofolate reductase-thymidylate synthase (Toxoplasma gondii, UniProt Q07422)
T2 sequence (Q07422 whole entry): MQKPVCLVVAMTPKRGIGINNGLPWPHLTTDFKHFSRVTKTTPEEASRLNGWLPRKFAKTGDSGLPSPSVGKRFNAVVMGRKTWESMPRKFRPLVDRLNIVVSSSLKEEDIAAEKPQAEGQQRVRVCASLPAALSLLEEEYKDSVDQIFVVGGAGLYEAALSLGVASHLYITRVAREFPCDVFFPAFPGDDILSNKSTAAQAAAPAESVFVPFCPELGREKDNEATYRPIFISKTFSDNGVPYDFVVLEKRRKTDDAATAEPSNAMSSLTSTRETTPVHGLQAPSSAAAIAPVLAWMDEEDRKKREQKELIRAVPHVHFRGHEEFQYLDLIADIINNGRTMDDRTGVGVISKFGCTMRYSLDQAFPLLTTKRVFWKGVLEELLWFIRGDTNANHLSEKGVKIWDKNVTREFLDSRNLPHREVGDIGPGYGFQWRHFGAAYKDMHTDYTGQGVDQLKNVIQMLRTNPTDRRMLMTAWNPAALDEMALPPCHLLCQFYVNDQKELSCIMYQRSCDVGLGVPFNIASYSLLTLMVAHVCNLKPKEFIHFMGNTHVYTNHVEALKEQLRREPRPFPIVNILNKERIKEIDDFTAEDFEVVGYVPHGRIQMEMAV
Description: Inhibition of Toxoplasma gondii Dihydrofolate Reductase

[5] = molecular target: T3, Dihydrofolate reductase (Pneumocystis carinii, UniProt P16184)
T3 sequence (P16184 whole entry): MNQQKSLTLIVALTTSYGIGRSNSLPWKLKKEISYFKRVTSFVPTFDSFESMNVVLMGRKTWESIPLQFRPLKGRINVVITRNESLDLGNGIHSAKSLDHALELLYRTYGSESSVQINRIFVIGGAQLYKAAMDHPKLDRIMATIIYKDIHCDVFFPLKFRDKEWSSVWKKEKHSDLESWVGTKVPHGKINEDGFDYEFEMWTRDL
Description: Inhibition of Pneumocystis carinii Dihydrofolate Reductase

Compound	Selectivity ratio [2]	IC50 [3] [µM]	IC50 [5] [µM]	Selectivity ratio [1]	IC50 [4] [µM]
COc1cc(NCc2c(Br)sc3nc(N)nc(N)c23)cc(OC)c1OC	1.2	17	13		34
COc1cc(N(C)Cc2c(Br)sc3nc(N)nc(N)c23)cc(OC)c1OC	0.88	28	31		127
COc1ccc(OC)c(N(C)Cc2c(Br)sc3nc(N)nc(N)c23)c1		> 10	> 10		> 10
COc1ccc(OC)c(NCc2c(Br)sc3nc(N)nc(N)c23)c1		33	> 100		> 100

More lines, in order of falling IC50 [3], values ahead:

Selectivity ratio [2]	IC50 [3] [µM]	IC50 [5] [µM]	Compound	Selectivity ratio [1]	IC50 [4] [µM]
1.4	10	7.5	Nc1nc(N)c2c(CNc3cc(Cl)c(-n4cccc4)c(Cl)c3)c(Br)sc2n1	0.39	26
0.048	0.015	0.031	COc1cc(Cc2cnc(N)nc2N)cc(OC)c1Br [BRODIMOPRIM]	0.088	0.017
